Consider 3 molecules from the NIST ThermoML archive (doi:10.1021/je050540h).

Numbers after ± are expanded uncertainties.

The data set can be described thus: xn = mol fraction of the nth substance listed. As to conditions: Liquid.

For the molecule `CC(C)O` [propan-2-ol] + C1CCCC1, where the note is “293.15 K, 101 kPa, x2 = 0”, the mass density is reported as 785.07 ± 0.48 kg/m3, the speed of sound was 1156 ± 3 m/s and the viscosity worked out at 2.382 ± 0.056 mPa·s. Under “298.15 K, 101 kPa, x2 = 0”, the mass density worked out at 780.87 ± 0.48 kg/m3, the speed of sound amounted to 1139 ± 2 m/s and the viscosity was 2.045 ± 0.049 mPa·s. For the setting “303.15 K, 101 kPa, x2 = 0”, the mass density was found to be 776.6 ± 0.49 kg/m3, the speed of sound is recorded as 1121 ± 2 m/s and the viscosity was found to be 1.763 ± 0.043 mPa·s.

Turning to `C1CCCCC1` [cyclohexane] + CCCC(C)O, the speed of sound is, setting by setting: (293.15 K, 7 kPa, x1 = 1) 1279 ± 3 m/s; (298.15 K, 7 kPa, x1 = 1) 1254 ± 3 m/s; (303.15 K, 7 kPa, x1 = 1) 1230 ± 3 m/s. The mass density came out at 778.62 ± 0.48 kg/m3 (293.15 K, 101 kPa, x1 = 1); 773.92 ± 0.49 kg/m3 (298.15 K, 101 kPa, x1 = 1); 769.19 ± 0.49 kg/m3 (303.15 K, 101 kPa, x1 = 1). The viscosity reads like this: (293.15 K, 101 kPa, x1 = 1) 0.968 ± 0.024 mPa·s; (298.15 K, 101 kPa, x1 = 1) 0.887 ± 0.022 mPa·s; (303.15 K, 101 kPa, x1 = 1) 0.816 ± 0.021 mPa·s.

On to `CC(C)O` [propan-2-ol] + C1CCCCC1, for which the mass density is, setting by setting: (293.15 K, 101 kPa, x2 = 0) 785.07 ± 0.48 kg/m3; (298.15 K, 101 kPa, x2 = 0) 780.87 ± 0.48 kg/m3; (303.15 K, 101 kPa, x2 = 0) 776.6 ± 0.49 kg/m3. Moreover, the speed of sound (293.15 K, 101 kPa, x2 = 0) was 1156 ± 3 m/s; the speed of sound (298.15 K, 101 kPa, x2 = 0) is listed as 1139 ± 2 m/s; the speed of sound (303.15 K, 101 kPa, x2 = 0) came to 1121 ± 2 m/s. Moreover, the viscosity (293.15 K, 101 kPa, x2 = 0) was 2.382 ± 0.056 mPa·s; the viscosity (298.15 K, 101 kPa, x2 = 0) is 2.045 ± 0.049 mPa·s; the viscosity (303.15 K, 101 kPa, x2 = 0) is 1.763 ± 0.043 mPa·s.
